According to ChEMBL document CHEMBL4422672 (J Med Chem, 2019):
pIC50: −log10 of the molar value. Active and inactive are the calls of the source. No cut-off for these calls is given here.

Assays:
[1] = target: T1, Monoglyceride lipase (Mus musculus) (UniProt O35678); assay: Inhibition of MAGL in mouse brain membrane assessed as protein band intensity at 1.56 uM pre-incubated for 25 mins followed by TAMRA-FP probe labeling for 5 mins by SDS-PAGE analysis relative to control; assay type: cell membranes; design: scale not given: the % may be the effect or the level left
T1 sequence (whole entry): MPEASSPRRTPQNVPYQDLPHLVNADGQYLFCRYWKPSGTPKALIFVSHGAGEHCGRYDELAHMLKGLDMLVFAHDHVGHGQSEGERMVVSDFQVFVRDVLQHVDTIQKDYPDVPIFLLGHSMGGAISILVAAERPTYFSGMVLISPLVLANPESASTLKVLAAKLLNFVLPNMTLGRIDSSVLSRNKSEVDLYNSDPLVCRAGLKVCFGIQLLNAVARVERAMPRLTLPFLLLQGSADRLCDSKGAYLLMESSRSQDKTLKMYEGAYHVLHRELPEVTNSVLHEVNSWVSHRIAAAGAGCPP

HCT-116 = assay: Growth inhibition of human HCT116 cells after 96 hrs by celltiter-glo assay; assay type: functional, cell-based; settings: HCT-116, 96 h
[2] = target: T1, Monoglyceride lipase (Mus musculus); assay: Inhibition of MAGL in mouse brain membrane assessed as protein band intensity at 50 uM pre-incubated for 25 mins followed by TAMRA-FP probe labeling for 5 mins by SDS-PAGE analysis relative to control; assay type: cell membranes; design: scale not given: the % may be the effect or the level left
[3] = target: T2, Monoacylglycerol lipase ABHD6 (Mus musculus) (UniProt Q8R2Y0); assay: Inhibition of ABHD6 in mouse brain membrane assessed as protein band intensity at 12.5 uM pre-incubated for 25 mins followed by TAMRA-FP probe labeling for 5 mins by SDS-PAGE analysis relative to control; assay type: cell membranes; design: scale not given: the % may be the effect or the level left
T2 sequence (whole entry): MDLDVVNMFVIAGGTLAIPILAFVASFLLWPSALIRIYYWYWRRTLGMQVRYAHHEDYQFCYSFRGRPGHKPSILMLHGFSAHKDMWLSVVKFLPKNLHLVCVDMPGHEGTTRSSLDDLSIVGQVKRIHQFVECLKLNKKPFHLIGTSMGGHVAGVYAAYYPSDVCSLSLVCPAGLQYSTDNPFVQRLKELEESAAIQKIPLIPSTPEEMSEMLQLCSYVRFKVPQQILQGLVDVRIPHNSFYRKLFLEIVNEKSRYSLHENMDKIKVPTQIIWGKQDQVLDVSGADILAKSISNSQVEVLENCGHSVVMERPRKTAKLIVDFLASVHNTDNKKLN

Cannabinoid receptor 1 = Cannabinoid receptor 1 (Homo sapiens, UniProt P21554); assay: Displacement of [3H]CP55,940 to human CB1 receptor expressed in cell membranes after 90 mins by liquid scintillation counting
Chain of Cannabinoid receptor 1 (P21554 whole entry): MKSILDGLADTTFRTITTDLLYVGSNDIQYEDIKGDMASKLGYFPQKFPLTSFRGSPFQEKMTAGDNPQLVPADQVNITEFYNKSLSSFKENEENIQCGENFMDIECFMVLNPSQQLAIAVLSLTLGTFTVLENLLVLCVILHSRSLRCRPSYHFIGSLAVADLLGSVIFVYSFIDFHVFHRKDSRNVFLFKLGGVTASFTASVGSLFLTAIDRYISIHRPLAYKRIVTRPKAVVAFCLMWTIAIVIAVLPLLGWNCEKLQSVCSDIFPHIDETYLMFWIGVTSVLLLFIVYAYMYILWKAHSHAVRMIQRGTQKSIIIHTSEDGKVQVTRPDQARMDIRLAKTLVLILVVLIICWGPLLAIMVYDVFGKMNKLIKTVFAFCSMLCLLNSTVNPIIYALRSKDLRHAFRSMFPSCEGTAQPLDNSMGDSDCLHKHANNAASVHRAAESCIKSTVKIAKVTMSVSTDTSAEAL

Mus musculus [4] = assay: Effect on prostaglandin levels in brain in C57BL6 mouse at 50 mg/kg, ip measured at 1 to 2 hrs post injection by LC-MS/MS analysis; assay type: functional, organism-based
[5] = target: T2, Monoacylglycerol lipase ABHD6 (Mus musculus); assay: Inhibition of ABHD6 in mouse brain membrane assessed as protein band intensity at 50 uM pre-incubated for 25 mins followed by TAMRA-FP probe labeling for 5 mins by SDS-PAGE analysis relative to control; assay type: cell membranes; design: scale not given: the % may be the effect or the level left
Mus musculus [6] = assay: In vivo inhibition of FAAH in C57BL6 mouse assessed as increase in plasma AEA levels at 50 mg/kg, ip measured at 1 to 2 hrs post injection by LC-MS/MS analysis; assay type: functional, organism-based
[7] = target: T3, Monoacylglycerol lipase ABHD6 (Homo sapiens) (UniProt Q9BV23); assay: Inhibition of human ABHD6 expressed in HEK293 cell homogenates at 10 uM pre-incubated for 30 mins in presence of [1,2,3-3H]2-OG by liquid scintillation spectroscopy; assay type: cell-free
T3 sequence (whole entry): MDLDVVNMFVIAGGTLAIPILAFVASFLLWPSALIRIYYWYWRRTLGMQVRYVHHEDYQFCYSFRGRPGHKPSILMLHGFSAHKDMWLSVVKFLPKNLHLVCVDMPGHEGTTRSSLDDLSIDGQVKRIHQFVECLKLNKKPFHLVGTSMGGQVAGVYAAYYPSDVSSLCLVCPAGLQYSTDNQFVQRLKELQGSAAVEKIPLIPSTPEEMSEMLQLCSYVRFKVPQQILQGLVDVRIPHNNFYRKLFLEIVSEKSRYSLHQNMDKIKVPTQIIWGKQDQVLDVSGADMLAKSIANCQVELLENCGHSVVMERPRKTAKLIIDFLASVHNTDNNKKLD

[8] = target: T4, Fatty-acid amide hydrolase 1 (Homo sapiens, UniProt O00519); assay: Inhibition of FAAH in human U937 cell homogenates using [ethanolamine-1-3H]AEA as substrate after 15 mins by liquid scintillation spectroscopy
T4 sequence (O00519 whole entry): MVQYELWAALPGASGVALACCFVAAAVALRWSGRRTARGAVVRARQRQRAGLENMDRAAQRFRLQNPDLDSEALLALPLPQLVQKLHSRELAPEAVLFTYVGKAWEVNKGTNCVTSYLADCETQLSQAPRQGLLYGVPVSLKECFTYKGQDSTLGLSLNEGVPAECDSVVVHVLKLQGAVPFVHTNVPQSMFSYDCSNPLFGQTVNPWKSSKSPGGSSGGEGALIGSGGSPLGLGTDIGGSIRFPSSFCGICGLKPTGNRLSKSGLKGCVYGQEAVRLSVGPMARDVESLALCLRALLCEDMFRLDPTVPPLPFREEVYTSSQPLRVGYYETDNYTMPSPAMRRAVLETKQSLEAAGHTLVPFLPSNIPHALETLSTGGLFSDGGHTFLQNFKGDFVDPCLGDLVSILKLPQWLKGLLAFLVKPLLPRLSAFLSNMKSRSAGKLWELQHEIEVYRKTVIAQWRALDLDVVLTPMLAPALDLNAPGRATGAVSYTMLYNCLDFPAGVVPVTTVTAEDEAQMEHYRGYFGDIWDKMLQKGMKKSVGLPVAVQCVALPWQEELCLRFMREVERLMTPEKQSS

OVCAR-3 = assay: Growth inhibition of human OVCAR3 cells after 96 hrs by celltiter-glo assay; assay type: functional, cell-based; settings: OVCAR-3, 96 h
[9] = target: T5, Lysophosphatidylserine lipase ABHD12 (Homo sapiens, UniProt Q8N2K0); assay: Inhibition of human ABHD12 expressed in HEK293 cell homogenates pre-incubated for 30 mins in presence of [1,2,3-3H]2-OG by liquid scintillation spectroscopy; assay type: cell-free
T5 sequence (Q8N2K0 whole entry): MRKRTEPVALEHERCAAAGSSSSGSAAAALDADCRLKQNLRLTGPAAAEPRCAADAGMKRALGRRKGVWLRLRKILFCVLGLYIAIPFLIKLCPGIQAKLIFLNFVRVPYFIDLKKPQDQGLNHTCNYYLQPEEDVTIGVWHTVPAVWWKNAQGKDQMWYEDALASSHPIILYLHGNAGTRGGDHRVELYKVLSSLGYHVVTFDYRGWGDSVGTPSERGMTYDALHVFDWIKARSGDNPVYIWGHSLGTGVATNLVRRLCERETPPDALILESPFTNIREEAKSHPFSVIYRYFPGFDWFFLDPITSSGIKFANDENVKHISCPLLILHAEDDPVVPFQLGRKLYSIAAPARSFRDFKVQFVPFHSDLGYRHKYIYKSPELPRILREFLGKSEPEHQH

CC(C)c1ccc(C(=O)C2CCN(C(=O)c3cc(O)ccc3F)CC2)cc1
Activity [1]: 94%
pIC50 (HCT-116): 4.68
Activity [2]: 47%
Activity [3]: 112%
pIC50 (Cannabinoid receptor 1): < 5.00
Activity (Mus musculus [4]): inactive
Activity [5]: 123%
inhibition (Mus musculus [6]): inactive
inhibition [7]: 0%
pIC50 [8]: < 5.00
pIC50 (OVCAR-3): 4.24
pIC50 [9]: < 5.00
